Experimental data taken from PMC10252614 (International Journal of Molecular Sciences, 2023).
“Also recorded” adds a separate entry of the source.

Legend:
hMAO-A = biological target: T1, hMAO-A (Homo sapiens, UniProt P21397); experiment: in vitro inhibition of hMAO-A, kynuramine fluorescence assay; assay type: biochemical
T1 construct: purchased Merck (Prague, Czech Republic)
T1 sequence (P21397 1-527): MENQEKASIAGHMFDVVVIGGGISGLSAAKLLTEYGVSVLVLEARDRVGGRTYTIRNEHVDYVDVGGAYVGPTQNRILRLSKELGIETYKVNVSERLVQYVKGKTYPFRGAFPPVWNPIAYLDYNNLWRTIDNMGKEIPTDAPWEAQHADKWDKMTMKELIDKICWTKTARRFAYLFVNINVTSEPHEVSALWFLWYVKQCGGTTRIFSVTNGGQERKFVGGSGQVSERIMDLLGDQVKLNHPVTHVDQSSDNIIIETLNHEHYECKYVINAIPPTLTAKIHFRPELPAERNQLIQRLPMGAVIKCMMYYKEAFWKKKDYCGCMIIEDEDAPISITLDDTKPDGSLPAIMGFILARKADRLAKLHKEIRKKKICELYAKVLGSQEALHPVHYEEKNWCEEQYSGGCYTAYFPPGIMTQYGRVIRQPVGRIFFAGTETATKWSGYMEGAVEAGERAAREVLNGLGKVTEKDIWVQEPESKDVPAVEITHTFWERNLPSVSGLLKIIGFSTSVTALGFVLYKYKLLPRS
Experimental: (§1) The hMAO-A and hMAO-B enzymes were purchased from Merck (Prague, Czech Republic). […] The mixture was pre-incubated at 37 °C for 15 min and subsequently substrate kynuramine was added to the final concentration of 100 µM. The final volume of reaction mixture was 0.1 mL. The whole reaction mixture was incubated at 37 °C for 30 min. The reaction was stopped by the addition of 20 µL 4M NaOH.

hMAO-B = biological target: T2, hMAO-B (Homo sapiens, UniProt P27338); experiment: in vitro inhibition of hMAO-B, kynuramine fluorescence assay; assay type: biochemical
T2 construct: purchased Merck (Prague, Czech Republic)
T2 sequence (P27338 1-520): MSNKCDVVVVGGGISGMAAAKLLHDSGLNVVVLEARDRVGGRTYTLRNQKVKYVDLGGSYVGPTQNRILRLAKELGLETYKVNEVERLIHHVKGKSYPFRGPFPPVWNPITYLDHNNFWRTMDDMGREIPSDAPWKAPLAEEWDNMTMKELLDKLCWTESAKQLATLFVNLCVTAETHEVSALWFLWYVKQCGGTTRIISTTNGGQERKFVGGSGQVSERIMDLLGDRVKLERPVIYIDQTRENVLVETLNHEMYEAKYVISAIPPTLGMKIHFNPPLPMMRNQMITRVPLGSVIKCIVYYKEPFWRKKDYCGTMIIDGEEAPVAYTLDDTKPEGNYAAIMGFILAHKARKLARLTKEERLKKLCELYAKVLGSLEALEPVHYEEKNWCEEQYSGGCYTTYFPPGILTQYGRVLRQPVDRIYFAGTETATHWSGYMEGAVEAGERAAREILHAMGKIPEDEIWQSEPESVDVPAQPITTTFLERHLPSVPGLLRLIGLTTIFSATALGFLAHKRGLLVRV
Experimental: as §1

GluN1/GluN2B receptor = biological target: T3, GluN1/GluN2B receptor (Homo sapiens, UniProt Q05586+Q13224); experiment: whole-cell patch-clamp on HEK293 cells expressing GluN1/GluN2B NMDAR; assay type: cell-based; conditions: HEK293, 10 µM, −60 mV, ± SEM (n = 5–6), 100% = full inhibition; read-out: Relative inhibition (RI) of GluN1/GluN2B NMDAR
T3 construct: expressed in transfected cells; host or cells: HEK293
T3 sequence (Q13224 27-1484, other chains not shown): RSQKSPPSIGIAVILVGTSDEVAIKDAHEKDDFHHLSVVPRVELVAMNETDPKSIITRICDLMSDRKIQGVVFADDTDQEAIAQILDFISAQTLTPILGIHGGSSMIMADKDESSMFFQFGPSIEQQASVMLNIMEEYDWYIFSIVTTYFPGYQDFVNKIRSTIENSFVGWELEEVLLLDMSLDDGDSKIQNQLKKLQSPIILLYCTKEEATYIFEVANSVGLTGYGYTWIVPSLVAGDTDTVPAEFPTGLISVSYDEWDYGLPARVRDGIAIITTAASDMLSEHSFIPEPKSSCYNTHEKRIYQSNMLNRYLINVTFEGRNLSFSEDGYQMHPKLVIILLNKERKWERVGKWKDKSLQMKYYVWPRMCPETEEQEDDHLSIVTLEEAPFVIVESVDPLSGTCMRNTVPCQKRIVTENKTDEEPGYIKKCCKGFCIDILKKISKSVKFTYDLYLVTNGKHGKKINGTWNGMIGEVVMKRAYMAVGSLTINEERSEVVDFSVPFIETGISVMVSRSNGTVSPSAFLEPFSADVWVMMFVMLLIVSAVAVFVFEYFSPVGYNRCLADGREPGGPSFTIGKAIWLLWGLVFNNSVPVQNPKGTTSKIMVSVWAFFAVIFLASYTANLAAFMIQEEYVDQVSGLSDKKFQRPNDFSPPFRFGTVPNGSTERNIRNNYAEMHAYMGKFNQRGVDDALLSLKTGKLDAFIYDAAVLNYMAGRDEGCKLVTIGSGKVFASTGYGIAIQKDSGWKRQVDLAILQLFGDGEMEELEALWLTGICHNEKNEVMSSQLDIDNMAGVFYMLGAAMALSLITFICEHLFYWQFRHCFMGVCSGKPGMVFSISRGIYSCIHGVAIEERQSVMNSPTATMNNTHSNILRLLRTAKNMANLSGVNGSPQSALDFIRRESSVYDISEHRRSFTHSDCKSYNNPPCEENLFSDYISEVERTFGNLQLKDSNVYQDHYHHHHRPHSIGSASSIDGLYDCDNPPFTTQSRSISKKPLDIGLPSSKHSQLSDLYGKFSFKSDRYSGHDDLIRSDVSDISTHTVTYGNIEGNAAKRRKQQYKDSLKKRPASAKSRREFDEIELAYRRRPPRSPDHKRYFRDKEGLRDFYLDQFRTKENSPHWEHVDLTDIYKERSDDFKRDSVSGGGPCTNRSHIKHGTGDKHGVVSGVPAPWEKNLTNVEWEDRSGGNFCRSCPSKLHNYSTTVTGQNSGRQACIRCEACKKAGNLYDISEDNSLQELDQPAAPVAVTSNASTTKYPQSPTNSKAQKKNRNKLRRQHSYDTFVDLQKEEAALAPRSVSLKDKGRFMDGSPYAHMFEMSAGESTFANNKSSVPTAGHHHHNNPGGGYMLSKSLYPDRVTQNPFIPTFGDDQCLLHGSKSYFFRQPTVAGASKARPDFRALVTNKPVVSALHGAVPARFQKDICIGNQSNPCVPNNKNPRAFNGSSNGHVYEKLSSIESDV
Experimental: We tested the derivatives by the whole-cell patch-clamp method at a concentration of 10 μM under steady-state conditions in the presence of the saturating concentrations of NMDAR (co-)agonists (L-glutamate and glycine). […] Whole-cell patch-clamp recordings were performed using an Axopatch 200B amplifier (Molecular Devices, LLC., San Jose, CA, USA) at a holding membrane potential of −60 mV. HEK293 cells were co-transfected with DNA vectors encoding human versions of the GluN1-4a (GluN1) and GluN2B subunits and green fluorescent protein (GFP) in a 1:1:1 ratio using 0.9 μL PolyMag reagent (OZ Biosciences SAS, Marseille, France) in 50 μL Opti-MEM I [56, 57]. After 15 min on a magnetic plate, HEK293 cells were trypsinized and resuspended in Opti-MEM I medium containing 1% FBS, 2 mM MgCl2 and 3 mM kynurenic acid (to reduce cell death caused by activation of NMDARs). Electrophysiological measurements were performed 24–48 h after completion of transfection at room temperature. The extracellular recording solution (ECS) contained (in mM): 160 NaCl, 2.5 KCl, 10 HEPES, 10 D-glucose, 0.2 EDTA, and 0.7 CaCl2 (pH 7.3 with NaOH). […] A microprocessor-controlled rapid perfusion system with a time constant for solution exchange around the recorded cell of ~20 ms was used. Currents were low-pass filtered at 2 kHz using an eight-pole Bessel filter, digitized at 5 kHz, and recorded using the pCLAMP 10 program (Molecular Devices, LLC., San Jose, CA, USA). The co-agonist glycine (100 µM) was applied throughout the recording, and the agonist L-glutamate (1 mM) was used to elicit responses of GluN1/GluN2B receptors.

[1] = PAMPA prediction of BBB permeability; assay type: in vitro ADME; conditions: for CNS (+/−): PAMPA class; for Papp: read-out: Pe ± SEM
Experimental: The assay validation was performed using standard compounds whose CNS status is experimentally known from in vivo conditions.
PAMPA (the parallel artificial membrane-permeability assay) is a high-throughput screening tool applicable for prediction of the passive transport of potential drugs across the blood–brain barrier (BBB). In this study, it was used as a non-cell-based in vitro assay carried out in a coated 96-well membrane filter. The filter membrane of the donor plate was coated with PBL (Polar Brain Lipid, Avanti, USA) in dodecane (4 µL of 20 mg/mL PBL in dodecane) and the acceptor well was filled with 300 µL of PBS (pH 7.4; VA). The tested compounds were dissolved first in DMSO and subsequently diluted with PBS (pH 7.4) to final concentrations of 50–100 μM in the donor wells. […] About 300 µL of the donor solution was added to the donor wells (VD) and the donor filter plate was carefully put on the acceptor plate so that the coated membrane was “in touch” with both the donor solution and acceptor buffer. In principle, the test compound diffused from the donor well through the lipid membrane (Area = 0.28 cm^2) to the acceptor well. The concentration of the drug in both the donor and acceptor wells were assessed after 3, 4, 5, and 6 h of incubation in quadruplicate using the UV plate reader Spark (Tecan Group Ltd., Männedorf, Switzerland) at the maximum absorption wavelength of each compound. In addition, the solution of the theoretical compound concentration, simulating the equilibrium state established if the membrane were ideally permeable, was prepared and assessed as well.

[2] = test system: differentiated SH-SY5Y cells; experiment: MTT viability of differentiated SH-SY5Y; assay type: cell-based, human; conditions: concentration equal to IC50 from undifferentiated model, 24 h
Experimental: Then, the differentiated SH-SY5Y cells were treated with concentrations corresponding to the IC50 values obtained from the cytotoxicity measurement using undifferentiated SH-SY5Y cells. Cells were exposed to a tested compound for 24 h. Then, the medium was replaced by a medium containing 10 μM of MTT and cells were allowed to produce formazan for another, approximately 3 h under surveillance. Thereafter, the medium was aspirated and purple crystals of MTT formazan were dissolved in 100 μL DMSO under shaking. Cell viability was assessed spectrophotometrically by the amount of formazan produced. Absorbance was measured at 570 nm with 650 nm reference wavelength on Spark (Tecan Group Ltd., Männedorf, Switzerland). The IC50 value was then calculated from the control-subtracted triplicates using non-linear regression (four parameters) of GraphPad Prism 9 software. Final IC50 and SEM values were obtained as a mean of three.

in vitro = conditions: human, undifferentiated SH-SY5Y cells

Structure (SMILES) | IC50 (hMAO-A) [µM] | selectivity profile hMAO-A vs hMAO-B (in words) (hMAO-B) | inhibition at 10 µM (GluN1/GluN2B receptor) [%] | BBB penetration by PAMPA (in words) [1] | CNS (+/−) [1] | Papp ([1]; PAMPA, PBS pH 7.4) [×10⁻⁶ cm/s] | effect on viability of differentiated SH-SY5Y (in words) [2] | IC50 at 24 h (in vitro) [µM] | IC50 (hMAO-B) [µM] | SI for MAO-B (hMAO-B; IC50(MAO-A)/IC50(MAO-B)) | Pe ± SEM ([1]; PAMPA, PBS pH 7.4) [×10⁻⁶ cm/s]
C#CCN(C)c1nc(NCCCC)c2ccccc2n1 [I-6e, N4-butyl-N2-methyl-N2-(prop-2-yn-1-yl)quinazoline-2,4-diamine] | 2.6 ± 0.23 | hMAO-A selective inhibitors | 30.1 ± 3.13 | high probability of crossing BBB via passive diffusion | CNS (+) (CNS (+) (high BBB permeation predicted): Pe (×10^−6 cm s^−1) > 4.0) | 7.37 ± 1.22 | no difference from the undifferentiated model | 67.95 ± 0.22 | – | – | –
C#CCN(C)c1nc(NC2CCCCC2)c2ccccc2n1 [I-6h, N4-cyclohexyl-N2-methyl-N2-(prop-2-yn-1-yl)quinazoline-2,4-diamine] | 0.9 ± 0.17 | inhibitor of both hMAO isoforms, with a preference for hMAO-B inhibition | 49.3 ± 1.16 | high probability of crossing BBB via passive diffusion | CNS (+) (CNS (+) (high BBB permeation predicted): Pe (×10^−6 cm s^−1) > 4.0) | 5.61 ± 1.01 | no difference from the undifferentiated model | 53.2 ± 3.03 | 8.69 ± 0.12 | 0.10 | –
C#CCN(C)c1nc(NC2CCCCC2)c2ccc(Cl)cc2n1 [II-6h, 7-chloro-N4-cyclohexyl-N2-methyl-N2-(prop-2-yn-1-yl)quinazoline-2,4-diamine] | – | hMAO-B selective inhibitors | 63.5 ± 3.46 | high probability of crossing BBB via passive diffusion | CNS (+) (CNS (+) (high BBB permeation predicted): Pe (×10^−6 cm s^−1) > 4.0) | 9.39 ± 1.17 | did not exhibit any cytotoxic effects; also recorded: lost the cytotoxic effect | 35 ± 1.53 | 0.33 ± 0.02 | – | –
C#CCN(C)c1nc(N)c2cc(OC)ccc2n1 [III-6a, 6-methoxy-N2-methyl-N2-(prop-2-yn-1-yl)quinazoline-2,4-diamine] | 0.62 ± 0.04 | hMAO-A selective inhibitors | 18.1 ± 5.75 | did not penetrate the artificial barrier | CNS (−) (CNS (−) (low BBB permeation predicted): Pe (×10^−6 cm s^−1) < 2.0) | – | no difference from the undifferentiated model | 38.6 ± 0.82 | – | – | 0
